Test results as given in patent publication US20240239818A1, “COMPOUNDS AND COMPOSITIONS COMPRISING FLUOROPHORES FOR USE IN VISUALIZATION AND PURIFICATION OR MANIPULATION” (priority 2022, published 2024).
“Also recorded” adds a separate entry of the source.

Tests used:
Assay type in all cases: cell-based
[1] = molecular target: T1, msGFP-HaloTag® fusion protein (mitochondria) from HEK293T cells (Rhodococcus rhodochrous, UniProt P0A3G2, A155T/A167V/A172T/A224E/C128F/C176G/D78G/E160K/E257K/H272N/K175M/K195N/L47V/L88M/N227D/S58T/T264A/Y273L/Y87F); test: Affinity capture (streptavidin microbeads) and in-gel fluorescence; settings: streptavidin beads
T1 construct: and (4) HaloTag®; expressed in transfected cells; host or cells: HEK293T, calcium phosphate transfection
Description: Affinity capture and in-gel fluorescence experiments. Affinity capture pulldown isolation experiments of biotin-labeled HaloTag® fusion proteins were performed on ice-cold isolation buffer (IB) consisting of KCl (0.18 M), ethylene glycol-bis(β-aminoethyl ether)-N,N,N′,N′-tetraacetic acid (EGTA; 1 mM), 3-(N-morpholino)propanesulfonic acid (MOPS; 5 mM); the pH was adjusted to pH=7.35 using KOH(aq).^51 HEK293T cells were scraped with 500 μL IB and homogenized using 12 strokes with a 27G syringe. The resulting homogenate was spun at 4° C. at 1000 g for 3 min to pellet large cellular debris. 50 μL of streptavidin-coated microbeads (Miltenyi, 130-048-101) were added to the supernatant and incubated for 30 min at 4° C. with slow rotation. LS columns (Miltenyi, 130-042-401) were prepared by first washing with 3 mL IB consisting of 2.5% bovine serum albumin (BSA; Jackson ImmunoResearch, 001-000-162) and then with plain IB (3×). Prior to supernatant-microbead mixture being loaded onto LS columns, 5% volume was taken for downstream total fraction calculations (i.e., the “total/20” sample). Columns and samples were kept at 4° C. (cold room) while samples were loaded onto columns and washed with IB (3×); this fraction was collected as designated as “wash”. After the washing step, the column was removed from the QuadroMACs magnet holder (Miltenyi, 130-092-857) and eluted with gentle plunge action into an Eppendorf tube; this was labeled as “eluate”. From here, there were three fractions for each condition: total/20, wash (unbound), and eluate (bound). Since mitochondria were being isolated, these samples were spun at 4° C. and 20,000 g to pellet mitochondria. These samples were then solubilized using the lysis buffer containing 1×PBS, 2% SDS, 1% Triton x-100, 10 mM EDTA, and protease inhibitors (2 mM PMSF, aprotinin, leupeptin, and pepstatin A). Samples were then incubated at 72° C. for 3-4 min after the addition of sample buffer (SB) (DTT, glycerol, and bromophenol blue). For protein detection, 10-20 μL of the sample was subjected to sodium dodecyl sulfate-polyacrylamide gel electrophoresis (SDS-PAGE), using 13% gels. The affinity capture pulldown efficiency was monitored using in-gel fluorescence. The msGFP signal from HaloTag®-TEV-4×GS-msGFP-mito after cell lysis and SDS-PAGE was analyzed, in-gel, using a BioRad Chemidoc MP imager (BioRad) through GFP fluorescence excitation and emission filters. Data were quantified by densitometry using Fiji.^52 Capture efficiency was calculated using equation 3:
[formula] • where Ieluate is the in-gel fluorescence intensity of the bead-bound fraction and Itotal/20 is the in-gel fluorescence intensity of the 5% of crude sample reserved for concentration control (i.e., the “total/20” sample).
Evaluation of biotin-HaloTag® ligand. A live cell permeable biotin reagent was saught for affinity pulldown of HaloTag® fusion proteins, given the broad utility of biotin conjugates in biochemistry and cell biology. To evaluate the performance of biotin-containing HaloTag® ligand, an assay was developed (FIG. 3A) where the HaloTag® is expressed as a fusion with monomeric superfolder green fluorescent protein (msGFP); the construct also included an OMP25 sequence to localize the fusion protein to the outer mitochondrial membrane, allowing straightforward imaging and affinity capture experiments.^28-29 HEK293T cells expressing this fusion protein were incubated with biotin-containing HaloTag® ligands followed by washing and cell lysis. The crude supernatant was incubated with streptavidin-coated magnetic microbeads, applied to a magnetic column, and washed. The magnet was removed, and the bead-bound mitochondria were eluted, lysed, and the resulting solution was analyzed by sodium dodecyl sulfate-polyacrylamide gel electrophoresis (SDS-PAGE) and in-gel fluorescence. To minimize dilution of the sample only the initial bead-bound fraction was collected, leaving some material on the column. […]

[2] = molecular target: T2, msGFP-HaloTag® fusion localized to the mitochondrial outer membrane (Rhodococcus rhodochrous, UniProt P0A3G2, A155T/A167V/A172T/A224E/C128F/C176G/D78G/E160K/E257K/H272N/K175M/K195N/L47V/L88M/N227D/S58T/T264A/Y273L/Y87F)
T2 construct: expressed in transfected cells; host or cells: HEK293T, calcium phosphate transfection
Description: HEK293T labeling and fluorescence microscopy. […] For pulse-chase experiments, HEK293T cells were incubated with biotin-HaloTag® ligand (6; #G8281, Promega) at either 100 nM or 10 μM for 1 hour at 37° C. and chased with 100 nM of JANELIA FLUOR® (JF)549-HaloTag® ligand (2HTL). […] For imaging, the coverslips containing HEK293T cells were fixed with 4% paraformaldehyde in PBS at 37° C. for 10 min, washed with PBS (3×), and mounted on glass slides with ProLong Glass Antifade Mountant with NucBlue™ Stain (ThermoFisher; P36981). These cells were imaged using a Zeiss LSM 880 with Airyscan and a plan-apochromatic 63×/1.40 oil objective in Fast Airyscan mode. The same image acquisition settings were used for each trial and condition. Images were then processed with automatic Airyscan deconvolution settings.

BRD4 [3] = molecular target: T3, BRD4 (Homo sapiens, UniProt O60885); test: BRD4 recruitment to HP1-HaloTag® in live N2a cells (no wash lattice lightsheet microscopy); settings: 100 nM
T3 construct: expressed in transfected cells; host or cells: N2a cells, transient transfection
Description: (§1) Live cell protein imaging and manipulation using JQ1-rhodamine-HaloTag® ligand. The ability of JQ1 ligands to recruit BET family protein BRD4 to HaloTag® fusion proteins at distinct genomic regions in N2a cells was then tested (FIG. 13A). N2a cells are neural progenitor cells that are frequently utilized to study neuronal differentiation and axonal growth. […] N2a cells were transiently transfected with plasmids encoding the HaloTag® protein fused to the following nuclear proteins: (1) constitutive heterochromatin marker heterochromatin protein 1 (HP1); (2) Cajal body component coilin; and (3) centromere localized histone H3 variant centromere protein A (CENP-A). These three proteins have a very distinct distribution in the nucleus than BRD4 which generally has an euchromatic distribution. Localization of BRD4 to specific gene loci can induce gene expression. […]
(§2) Initially, a side-by-side comparison of JF646 based 17 and JF635 based 18 was performed for recruiting BRD4 to coilin-HaloTag® under a “no wash” lattice lightsheet fluorescence microscopy setup. […] Advantageously, 18 also has lower absorptivity and negligible fluorescence quantum yield before HaloTag® conjugation. “No wash” imaging was performed and the fluorescence from JF635 and sfGFP were monitored. […] The […] HP1-HaloTag® labeled with either JF635-HaloTag® ligand (5HTL) or the JQ1 analog 18 were quantified (FIG. 13J).

BRD4 [4] = molecular target: T3, BRD4; test: BRD4 recruitment to coilin-HaloTag® in live N2a cells (no wash lattice lightsheet microscopy); settings: 100 nM
Description: as §1, §2

T2 sequence (P0A3G2 other isoform, or with tags, fused parts or gaps with the stated changes): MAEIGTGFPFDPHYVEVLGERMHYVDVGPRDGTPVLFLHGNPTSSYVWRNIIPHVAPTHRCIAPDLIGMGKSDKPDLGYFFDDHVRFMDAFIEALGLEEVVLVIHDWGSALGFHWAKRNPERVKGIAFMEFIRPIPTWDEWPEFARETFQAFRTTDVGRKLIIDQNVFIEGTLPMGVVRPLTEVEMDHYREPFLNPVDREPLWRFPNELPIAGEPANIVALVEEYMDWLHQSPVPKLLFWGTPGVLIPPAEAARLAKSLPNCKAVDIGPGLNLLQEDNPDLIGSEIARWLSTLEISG
T1 sequence (P0A3G2 other isoform, or with tags, fused parts or gaps with the stated changes): as above

Row | Compound | affinity capture (protein bound to streptavidin) [1] | labeling of HaloTag®-msGFP fusion by pulse-chase (JF549/msGFP ratio after 2HTL chase) ([2]; HEK293T, 10 μM (μM concentrations), 1 h pulse) | labeling of HaloTag®-msGFP fusion by pulse-chase ([2]; HEK293T, nanomolar concentration (100 nM)) | concentration required to achieve cellular labeling ([2]; live cells) | BRD4 localization to HP1-HaloTag® (BRD4 [3]) | BRD4 recruitment to coilin-HaloTag® (BRD4 [4])
1 | O=C(CCCC[C@@H]1SC[C@@H]2NC(=O)N[C@@H]21)NCCOCCOCCCCCCCl [compound 6, biotin-HaloTag® ligand] | prevents purification of HaloTag®-expressing mitochondria; also recorded: no appreciable affinity capture | substantially reduced JF549/msGFP ratio; also recorded: labels the HaloTag®-msGFP fusion in living cells; also recorded: substantially labeled the HaloTag® protein fusion | poor labeling | 10 µM |  | 
2 | Cc1sc2c(c1C)C(c1ccc(Cl)cc1)=N[C@H](CC(=O)NCCCCOCCOCCNC(=O)C1(F)C[N+](=C3C=CC4=C(c5cc(C(=O)NCCOCCOCCCCCCCl)ccc5C(=O)[O-])c5ccc(N6CC(F)C6)cc5[Si](C)(C)C4=C3)C1)c1nnc(C)n1-2 (stereo partly drawn) [compound 19, (−)-JQ1-JF635-HaloTag® ligand] |  |  |  |  | did not result in BRD4 localization | did not result in BRD4 localization
